Reference: PMC12040169 (PLOS Biology, 2025)

Experiment: in vitro
Conditions: human, hela cells, % viability

Compound: O=C1/C(=C/c2ccccc2)S/C(=N/N=C/c2ccccc2)N1c1ccc(O)cc1 [CBK262803]
- viability at 28.5 h, 10 µM: 89.6%

Compound: CC(=O)OCc1c(C)cc(C)c(CN(C)C(C)c2ccon2)c1C (centres unmarked) [CBK306780]
- viability at 28.5 h, 10 µM: 79.3%

Compound: COc1cnc(-c2ccccc2OC)c(NC(C)=O)n1 [CBK145259]
- viability at 28.5 h, 10 µM: 89.1%

Compound: CCN1CC2(CCC1=O)CCN(Cc1cccc(CCN)c1)CC2 [CBK306823]
- viability at 28.5 h, 10 µM: 100%

Compound: Cc1cc(C2(C(F)(F)F)C=C3c4ccccc4CC(C)(C)N3C2=O)cc(C)c1O (centres unmarked) [CBK017463]
- viability at 28.5 h, 10 µM: 99.2%

Compound: Cc1ccc(OC(C)C(=O)NCCCN2CCOCC2)cc1C (centres unmarked) [CBK268109]
- viability at 28.5 h, 10 µM: 94.3%

Compound: O=C(c1ccno1)N1CCC(Cc2ccccc2)CC1 [CBK200185]
- viability at 28.5 h, 10 µM: 112%

Compound: O=C(CSc1nc(-c2cccc([N+](=O)[O-])c2)cs1)NCC1CCCO1 (centres unmarked) [CBK268020]
- viability at 28.5 h, 10 µM: 92.8%

Compound: CC(=O)NC[C@H]1CN(c2ccc(C#N)c(C)c2)C(=O)O1 [CBK010393]
- viability at 28.5 h, 10 µM: 107%

Compound: COc1ccc(Cl)cc1Nc1nc(N)nc(CC(=O)CSc2ccc(C)cc2)n1 [CBK265200]
- viability at 28.5 h, 10 µM: 90.2%

Compound: COc1ccccc1-c1cn2ccnc2c(N2CCCC2CO)n1 (centres unmarked) [CBK037266]
- viability at 28.5 h, 10 µM: 96.5%

Compound: Cc1nn(C)c(Cl)c1S(=O)(=O)Nc1cc(N2CCN(C(=O)OC(C)(C)C)CC2)c2occc2c1 [CBK067787]
- viability at 28.5 h, 10 µM: 95.8%

Compound: CC(=O)NC(Cc1c[nH]cn1)C(=O)O (centres unmarked) [CBK261105]
- viability at 28.5 h, 10 µM: 101%

Compound: CCOC(=O)c1c(NC(=O)C2C3CCC(C3=C(C)C)C2C(=O)O)sc2c1CCCCC2 (centres unmarked) [CBK265439]
- viability at 28.5 h, 10 µM: 106%

Compound: CN1CCN(c2ccc(NC(=O)c3cccc(Br)c3)cc2)CC1 [CBK266140]
- viability at 28.5 h, 10 µM: 97.5%

Compound: CCN1CCC2(CC1)NC(=O)Cc1ccccc12 [CBK039810]
- viability at 28.5 h, 10 µM: 96%

Compound: O=C(c1cccnc1)C1CCN(C(=O)C2CCCC2)CC1 [CBK283508]
- viability at 28.5 h, 10 µM: 96.2%

Compound: CCOC(=O)N1CCC2(CC1)OCc1cc(-c3ccccc3CO)ccc1O2 [CBK060908]
- viability at 28.5 h, 10 µM (bulk resorufin, single well): 103%

Compound: CC(C)[C@H](CO)Nc1nc(-c2cccc3ccccc23)cnc1N [CBK063701]
- viability at 28.5 h, 10 µM: 101%

Compound: CN(CCC#N)C(=O)c1cc2cc(Cl)ccc2[nH]1 [CBK287956]
- viability at 28.5 h, 10 µM: 98%

Compound: CCC(C)c1ccc(NC(=O)c2cccnc2)cc1 (centres unmarked) [CBK057967]
- viability at 28.5 h, 10 µM: 85.9%

Compound: Cc1cnc(CNC(=O)c2ccc3nc[nH]c3c2)cn1 [CBK153318]
- viability at 28.5 h, 10 µM: 88.4%

Compound: Cc1cc(/C=C2\NC(=O)NC2=O)c(C)n1-c1ccc(OCc2ccccc2F)cc1 [CBK264842]
- viability at 28.5 h, 10 µM: 88.3%

Compound: O=C(c1ccoc1)N1CCN(S(=O)(=O)c2ccc3c(c2)Cc2cc(S(=O)(=O)N4CCN(C(=O)c5ccco5)CC4)ccc2-3)CC1 [CBK262299]
- viability at 28.5 h, 10 µM: 113%

Compound: Cc1nnc(SCC(=O)Nc2ccc(CN3CCOCC3)cc2)n1C [CBK306092]
- viability at 28.5 h, 10 µM: 102%

Compound: Nc1cc(N)nc(SCC(=O)Nc2nonc2N)n1 [CBK267522]
- viability at 28.5 h, 10 µM: 89.1%

Compound: CN1C(=O)C(CC(=O)NCCCc2ccc(F)cc2)c2ccccc21 (centres unmarked) [CBK282474]
- viability at 28.5 h, 10 µM: 106%

Compound: COc1cncc(-c2ccc(N3CCN(C(=O)c4ccco4)CC3)nc2)c1 [CBK037801]
- viability at 28.5 h, 10 µM: 96.7%

Compound: O=C(O)C1CSC(c2ccc([N+](=O)[O-])cc2)N1 (centres unmarked) [CBK260909]
- viability at 28.5 h, 10 µM: 103%

Compound: Nc1nc2c(nc(SCCc3ccccc3)n2C2OC(CO)C(O)C2O)c(=O)[nH]1 (centres unmarked) [CBK268686]
- viability at 28.5 h, 10 µM: 101%

Compound: CC1CCCCN1C(=O)c1cccc(Cn2cc(Br)c([N+](=O)[O-])n2)c1 (centres unmarked) [CBK058788]
- viability at 28.5 h, 10 µM: 104%

Compound: COc1ccc([C@@]23CC[C@@H](NC(=O)Nc4c(F)cc(F)cc4Cl)C[C@@H]2N(C)CC3)cc1OC [CBK073740T]
- viability at 28.5 h, 10 µM: 112%

Compound: C/C(=N\Nc1ccc(Cl)c(Cl)c1)c1cccnc1 [CBK015914C]
- viability at 28.5 h, 10 µM: 93.3%

Compound: Cc1ccc(NC(=O)COc2ccc(/C=C\c3onc(C)c3[N+](=O)[O-])cc2)cc1 [CBK268928]
- viability at 28.5 h, 10 µM: 88.2%

Compound: N#Cc1cnn2c(O)cc(Cc3ccccc3)nc12 [CBK287942]
- viability at 28.5 h, 10 µM: 110%
